Source: ChEMBL document CHEMBL3507680, “University of Dundee, Gates Library screen for HepG2 cell viability”

Assay: Human HepG2 cell viability assay in 384 well format
Type: toxicity, cell-based
Parameters: dose 125 nL, time 70.5 hour; cytotoxicity at 70.5 h: concentration not given beside the values
Details: HepG2 cells, read-out: Inhibition

Row | SMILES | cytotoxicity at 70.5 h
1 | Cc1ccc(CNC(=O)C2CCCCN2C(=O)OC(C)(C)C)cn1 (centres undefined) | -3.38%
2 | O=S(=O)(CCN1CCOC(Cn2cccn2)C1)c1ccccc1 (centres undefined) | -7.12%
3 | Cc1cc(NC(=O)[C@H]2CCCCN2C(=O)OC(C)(C)C)no1 | -2.01%
4 | CSCC(C)(O)CNC(=O)c1cccc(Cl)c1Cl (centres undefined) | -5.93%
5 | N#Cc1ccnc(N2CCN(CC(O)c3ccccc3Cl)CC2)c1 (centres undefined) | -0.0236%
6 | O=C(CC1CCCO1)Nc1cccc(N2CCN(CC3CC3)CC2)c1 (centres undefined) | 0.099%
7 | CCN1CCN(C(=O)C2CCCc3[nH]ncc32)CC1 (centres undefined) | 1.54%
8 | Cc1cn(CC(=O)NC2CCC(C(=O)O)CC2)c2ccccc12 (centres undefined) | -6.01%
9 | Cc1cc(C)c2c(c1)C(NCc1nnc3n1CCC3)CCCO2 (centres undefined) | -5.63%
10 | Cc1n[nH]cc1CNC(=O)[C@H]1CCCCN1C(=O)OC(C)(C)C | 8.82%
11 | OC(CN(Cc1ccccc1)Cc1cccnc1)c1cccs1 (centres undefined) | 10%
12 | Cc1cccc2c1OCCCC2NCc1nnc2n1CCCCC2 (centres undefined) | -7.8%
13 | CCN(CC)C(=O)N1CCN(C(=O)C2CCCc3[nH]ncc32)CC1 (centres undefined) | -3.25%
14 | O=C(C1CCCc2[nH]ncc21)N1CCCC2(C1)OCCO2 (centres undefined) | -9.5%
15 | CN1CCN(c2cc(CNCc3cccc4c3OCO4)ccn2)CC1 | -8.22%
16 | Cc1cnn(CC2CN(CCCS(=O)(=O)N(C)C)CCO2)c1 (centres undefined) | -10.7%
17 | CC(C(=O)NCc1ccnc(OCC(F)(F)F)c1)n1cncn1 (centres undefined) | -2.68%
18 | Cc1[nH]ncc1CCCNC(=O)Nc1ccc(F)cc1 | 3.38%
19 | O=C(c1cccnc1-n1cncn1)N1CCN(c2ccccc2)CC1 | -8.14%
20 | COc1ccc(Oc2ccc(CNC(=O)C(C)n3cncn3)cn2)cc1 (centres undefined) | -0.159%
21 | CC(C)(C)c1nnc(CN2CCN(C(=O)N3CCCCC3)CC2)o1 | -3.76%
22 | CC(C)CCN1CCN(C(=O)c2cccnc2-n2cncn2)CC1 | -3.48%
23 | Cc1ccc(C(=O)NCCNCC2CNc3ccnn3C2)cc1F (centres undefined) | 1.33%
24 | CCCN1CCN(C(=O)c2cccnc2-n2cncn2)CC1 | -2.43%

Row | SMILES | cytotoxicity at 70.5 h
25 | O=C(c1cccnc1-n1cncn1)N1CCN(C2CCCC2)CC1 | -5.59%
26 | Cc1[nH]ncc1CCCNC(=O)Nc1ccc2c(c1)OC1(CCCC1)O2 | -2.92%
27 | CCN(C(=O)CSc1ccc(C(F)(F)F)cn1)C1CC1 | 7.64%
28 | Cc1ccc(C(=O)NCCNCC2CNc3ccnn3C2)cc1 (centres undefined) | -0.325%
29 | CC(C)(C)c1nnc(CN2CCN(C(=O)CC3CCCCC3)CC2)o1 | -2.8%
30 | Cc1cnn(CC2CCCN2CC(=O)N(C)Cc2cnn(C)c2)c1 (centres undefined) | -1.69%
31 | Cc1[nH]ncc1CCCNC(=O)Nc1ccccc1 | 14.5%
32 | CCOCC(O)CN1CCN(C(=O)c2ccc(N(C)C)nc2)CC1 (centres undefined) | 1.39%
33 | CC(O)CN1CCN(C(=O)c2ccnc(N(C)C)c2)CC1 (centres undefined) | 14.1%
34 | CCCc1nc(C)c(C(=O)NS(=O)(=O)c2cccnc2)s1 | -0.303%
35 | CN(CCn1cnnc1)C(=O)c1ccnc(OC2CCC2)c1 | 16.2%
36 | COCC(=O)NCc1cccc(OCCN(C)C2CCOCC2)c1 | -0.957%
37 | Cc1cccc(C(=O)NCCNCC2CNc3ccnn3C2)c1 (centres undefined) | -1.43%
38 | CCCc1nc(CN(C)CC2CCN(CCO)CC2)no1 | 14.7%
39 | CC(=O)N1CCC(c2nc(Cc3ccccc3)no2)C1 (centres undefined) | -3.88%
40 | Cc1nc(C)n(CC2CCCN2CC(=O)N(C)Cc2ccc(C)o2)n1 (centres undefined) | -4.56%
41 | CN(CCOc1cccc(CNS(C)(=O)=O)c1)C1CCOCC1 | 1.39%
42 | CN(Cc1cnn(C)c1)C(=O)c1ccnc(OC2CCC2)c1 | 15.8%
43 | CCc1noc(CN(C)C(=O)c2ccnc(OC3CCC3)c2)n1 | -0.589%
44 | CC(=O)N1CCCN(Cc2nnc(C(C)(C)C)o2)CC1 | 5.23%
45 | Cn1nc(C(=O)N(CC(F)(F)F)c2cccc(Cl)c2)ccc1=O | 9.92%
46 | Cc1cccc2c(CCNC(=O)NCC[S+](C)[O-])c[nH]c12 (centres undefined) | 0.892%
47 | Cc1nc(C(=O)N(C)C2CC(=O)N(Cc3ccccc3)C2=O)cs1 (centres undefined) | -5.65%
48 | CCCc1nc(CNc2cc(CS(C)(=O)=O)ccc2Cl)no1 | -0.135%

Row | SMILES | cytotoxicity at 70.5 h
49 | CCN(Cc1cnn(C)c1)S(=O)(=O)N1CCCC1c1ccco1 (centres undefined) | 3.59%
50 | COCC(C)(C#N)NC(=O)COc1ccccc1 (centres undefined) | -0.947%
51 | COC(=O)c1cc(C(=O)N2CCc3ccc(F)cc3C2C)ccn1 (centres undefined) | -0.61%
52 | CCC(CO)NC(=O)Cc1ccc(NC(=O)CC2=CCCCC2)cc1 (centres undefined) | -3.34%
53 | CN1CC(Nc2ccc(Br)cc2C#N)CCC1=O (centres undefined) | -0.708%
54 | COc1ccnc(N(C)Cc2ccccc2O)n1 | 1.42%
55 | CCCN(CC1CC1)S(=O)(=O)c1ccc(NC(C)=O)cc1 | -1.65%
56 | CN(CCN1CCOCC1)S(=O)(=O)CC1CCCC1 | -0.906%
57 | CN(C(=O)c1ccc[nH]1)C1CC(=O)N(Cc2ccccc2)C1=O (centres undefined) | -4.14%
58 | Cc1cc(C)n(CC2CCCCN2C(=O)c2sccc2C#N)n1 (centres undefined) | 1.28%
59 | Cc1ccc(C2CCCN2S(=O)(=O)N(C)Cc2cnn(C)c2)o1 (centres undefined) | 13.3%
60 | COc1ccc(CN2CCN(C(C)=O)CC2)cc1SC(F)(F)F | 0.0728%
61 | N#Cc1c(N2CCCN(C3CCOCC3)CC2)nc2ccccn12 | -2.26%
62 | CC(=O)N1CCC(Nc2ccc(Br)cc2C#N)C1 (centres undefined) | 4.92%
63 | CN(c1ncnc2c1CCC2)C1CCCN(c2cccnn2)C1 (centres undefined) | 1.68%
64 | Cc1ccc(F)cc1NC(=O)CCn1cncn1 | -8.38%
65 | Cc1cc(F)ccc1NCC(=O)NCC(F)(F)F | 0.946%
66 | CC(=O)Nc1nc(C(=O)NCCOc2ccccc2F)cs1 | -15.5%
67 | CCN(CC)Cc1ccccc1NC(=O)N(C)Cc1ccc(OC)cc1 | -15.6%
68 | Cn1ccnc1COc1ccc(CSc2nnnn2C)cc1 | -11.4%
69 | Cc1cc(C(=O)N2CCC(N3CCNC3=O)CC2)nn1C(C)(C)C | -16.5%
70 | Cc1cnn(CC2CC2)c1NC(=O)c1cccnc1O | 14.4%
71 | NC(=O)NC(=O)CCN1C(=O)CC(Cc2ccc(F)cc2)C1=O (centres undefined) | -13.2%
72 | CCC(NC(=O)CS(=O)(=O)C1CCCC1)c1cc(F)ccc1F (centres undefined) | -7.05%

Row | SMILES | cytotoxicity at 70.5 h
73 | CC(Cn1cncn1)NC(=O)Nc1ccc(F)cc1OCC1CC1 (centres undefined) | -9.35%
74 | CC(CNC(=O)c1cnccn1)Oc1cccc(Br)c1 (centres undefined) | 12.9%
75 | CNC(=O)c1ccc(OC)c(NCc2noc(-c3ccsc3)n2)c1 | -11.3%
76 | COCCn1cc(NCc2cccc3cn[nH]c23)cn1 | -5.47%
77 | COc1ccc(C(N)=O)cc1NCc1noc(-c2ccsc2)n1 | -10.8%
78 | CN(c1ncnc2sccc12)C1CCCN(c2cccnn2)C1 (centres undefined) | -13.9%
79 | CN(C(=O)CCc1ccsc1)S(C)(=O)=O | 6.34%
80 | Cc1ccc(OC(C)CNC(=O)c2c[nH]nn2)cc1 (centres undefined) | -7.76%
81 | O=C(c1cnccn1)N1CCN(c2ccnc3ccsc23)CC1 | -13.2%
82 | Cc1noc(CCNS(=O)(=O)N2CCCC2c2ccco2)n1 (centres undefined) | -8.16%
83 | Cc1cccc(-c2nnc(C(C)NCCn3cc(C)cn3)o2)c1 (centres undefined) | -7.5%
84 | CC(C)c1nc2n(n1)CC(NCCc1cccs1)CC2 (centres undefined) | -5.42%
85 | CNS(=O)(=O)c1cccc(CNC(=O)c2cnn(C)c2C)c1 | -11.8%
86 | Cc1noc(CS(=O)(=O)C/C=C/c2ccccc2)n1 | -19.1%
87 | CC(CCNC(=O)NCCc1ccc(S(N)(=O)=O)cc1)c1ccccc1 (centres undefined) | -8.25%
88 | CC(CCNC(=O)NCCNc1cnccn1)c1ccccc1 (centres undefined) | -13.6%
89 | CS(=O)(=O)NC1CCN(C(=O)CCn2cccn2)CC1 | -9.56%
90 | Cc1cc(SC(C)(C)C)ccc1NCC(=O)NC(N)=O | -9.41%
91 | NC(=O)CCN(C(=O)c1cccc2c1OCO2)c1ccccc1 | -14%
92 | CCc1ccc(C(=O)O)cc1S(=O)(=O)N(C)c1cccc(C#N)c1 | -6.98%
93 | Cc1ccc(C(=O)O)cc1S(=O)(=O)N(C)c1cccc(C#N)c1 | -7.91%
94 | CC(Cn1cccn1)C(=O)N1CCC(Nc2cccnn2)CC1 (centres undefined) | -10%
95 | CCc1ccc(C(=O)O)cc1S(=O)(=O)N(C)c1cccc(C)c1 | -7.54%
96 | Cc1c(I)cccc1C(=O)NCc1ncc[nH]1 | -0.0896%

Row | SMILES | cytotoxicity at 70.5 h
97 | Cc1nn(CC(=O)Nc2cccc(F)c2)c(N)c1C#N | -5.02%
98 | Cc1ccc(C)c(NC(=O)Cn2nc(C)c(C#N)c2N)c1 | -10.2%
99 | CC(CC#N)N(C)Cc1ccccc1F (centres undefined) | -9.07%
100 | Cc1oc(CN(C)C(=O)c2ccc(C(F)(F)F)cc2)cc1C(=O)O | -6.23%
101 | Cc1cc(CN(Cc2ccccc2)C(C)CN2CCOCC2)no1 (centres undefined) | -5.58%
102 | CNC(=O)c1cccc(CNC(C)c2cc(Cl)ccc2OC)c1 (centres undefined) | -2.03%
103 | Fc1ccc(NCc2ncc[nH]2)cc1Br | -7.28%
104 | CNC(=O)C(C)(C)CNC(=O)Nc1cc(C)ccn1 | -7.88%
105 | CC(C)c1nc2n(n1)CC(NCC(=O)N(C)Cc1cccs1)CC2 (centres undefined) | -13.3%
106 | CC(=O)OCC1CCCCN1C(=O)c1ccc(Cn2ccnc2)o1 (centres undefined) | 22.8%
107 | Cn1cc(C(C)(O)CNC(=O)c2ccc(Br)s2)cn1 (centres undefined) | 48.4%
108 | N#Cc1cccc(OCC(=O)N(Cc2ccncc2)C2CC2)c1 | -10.3%
109 | CCS(=O)(=O)N1CCN(C(C)c2ccccc2OC)CC1 (centres undefined) | -10.2%
110 | CC(=O)N1CCCc2cc(NC(=O)NCCc3cnn(C)c3)ccc21 | -2.87%
111 | Cc1ccccc1C(C)(C)CNC(=O)CN(C)c1cnccn1 | -0.621%
112 | CCOC1CCCN(C(=O)Nc2cnn(CC(F)F)c2)C1 (centres undefined) | -9.21%
113 | c1nc(N2CCN(Cc3nnnn3C3CC3)CC2)c2sccc2n1 | 2.44%
114 | Cc1nsc(N2CCc3sccc3C2)n1 | -1.49%
115 | OCC1CN(Cc2nc(C(F)(F)F)cs2)c2ccccc2O1 (centres undefined) | -9.55%
116 | Cc1nc(CN2CC(CO)Oc3ccccc32)sc1C (centres undefined) | -3.25%
117 | CC(C)C1CN(C(=O)Nc2cnn(CC(F)F)c2)CCS1 (centres undefined) | 5.93%
118 | CN(C)S(=O)(=O)c1ccc(CN2CCC(c3ccccc3)C2)o1 (centres undefined) | 4.6%
119 | Cc1cccc(C(C)(C)CNC(=O)CN(C)c2cnccn2)c1 | -2.49%
